{"source": "patent US20080206222A1", "about": "“Preventive/Therapeutic Composition For Free Radical Disease” (priority 2004, published 2008)", "key": {"[1]": {"test_system": "Bovine aortic endothelial cells BAE2", "settings": "22 h, 50 μM", "protocol": "Bovine aortic endothelial cells BAE2 were inoculated at a cell density of 8×10^4/cm^2, and after 18 hours, each of a fullerene, ascorbic acid and the fullerenes of the invention of this application of the formulation Nos. 1 to 13 shown in the above Table 1 was administered at a concentration of 50 μM which falls within the range of the level of the respective substances in the normal human blood. After 22 hours, the amounts of fullerenes and ascorbic acid present in the cells were determined by coulometry and HPLC (high-performance liquid chromatography) with ECD (electrochemical detection). The water content in the cells was measured by gas chromatography using 14C-labeled polyethylene glycol and found to be 0.598 μL/cell."}, "[2]": {"test_system": "human fibrosarcoma cell line HT1080", "assay": "Test for cell migration (cell haptotaxis), Boyden double chamber", "assay_type": "cell-based", "settings": "HT1080, administered at 300 μM; coulometry and HPLC with ECD", "procedure": "A Boyden double chamber was used, in which a porous film with 8 μm pores was placed, the upper surface of the porous film was coated with Matrigel as a reconstituted basement membrane, the lower surface of the porous film was coated with fibronectin as an extracellular matrix. […] Further, the concentration of ascorbic acid present in the cells was determined by coulometry and HPLC with ECD."}, "[3]": {"assay": "Stability test in aqueous solution (HPLC residual ratio)", "assay_type": "physicochemical", "settings": "0.1% aqueous solution in purified water, room temperature", "procedure": "A difference in the stabilities of PVP/fullerene (molecular weight of PVP: 60,000), a fullerene monoester, and salts of a fullerene monoester in an aqueous solution (a storage test at room temperature for 10 days) is shown in Table 7. […] Incidentally, the stability was evaluated by determining the residual ratio of the above substance using the HPLC method by leaving a 0.1% aqueous solution of the above substance (in purified water) at room temperature for 10 days."}, "[4]": {"test_system": "rat coronary artery occlusion model", "assay": "Test for comparative effect on organ failure (versus human Cu-Zn SOD)", "assay_type": "in vivo", "settings": "5 mg/kg intravenously before occlusion and once daily for 5 days; dissection after 10 days; control Ringer's solution with human Cu-Zn SOD", "procedure": "A rat coronary artery occlusion model was subjected to systemic ischemia for 5 minutes, followed by reperfusion. When the level of free radical-dependent chemiluminescence in the peripheral blood was measured using a chemical luminescence manufactured by Showa Denko K. K. from the start of this experiment, a significant increase in the level of free radical was observed from immediately after the initiation of reperfusion. In a test group, the injectable solution of Example 2 was intravenously administered to the rat at 5 mg/kg at 15 minutes before the occlusion of the coronary artery of the rat in advance, and in a control group, a Ringer's solution supplemented with human Cu—Zn SOD was injected in the same manner as in the test group. Also after the initiation of reperfusion, the above pharmaceutical composition of the present invention was injected at the same dose once daily for 5 days, and after 10 days, dissection was carried out, and cardiac, hepatic, renal, pancreatic and cystic cell necrosis indices were determined using a 45 Ca-autoradiography/image analyzer."}}}
{"compound": "O=C1O[C@H]([C@@H](O)CO)C(O)=C1O", "note": "[Ascorbic acid]", "values": [{"measurement": "concentration in the cells", "setting": "[1]", "result": 60, "unit": "µM"}, {"measurement": "concentration in the cells relative to that outside the cells", "setting": "[1]", "result": 1.2, "unit": "times"}, {"measurement": "concentration of ascorbic acid present in the cells", "setting": "[2]", "result": 103, "unit": "µM"}, {"measurement": "Residual ratio after 10 days (%)", "setting": "[3]", "result": 0, "unit": "%"}]}
{"compound": "human Cu—Zn SOD: human Cu—Zn SOD added to Ringer's solution for the control group", "values": [{"measurement": "necrosis of cardiac, hepatic, renal, pancreatic and cystic cells (45Ca-autoradiography/image analyzer)", "setting": "[4]", "result": "delayed cell death"}]}
